Measurements reported in ChEMBL document CHEMBL3351407, “Synthesis of novel pyrazole–thiadiazole hybrid as potential potent and selective cyclooxygenase-2 (COX-2) inhibitors” (Bioorg Med Chem Lett, 2014).

Tests used:
[1] = molecular target: T1, Prostaglandin G/H synthase 1 (Ovis aries, UniProt P05979); experiment: Inhibition of ovine COX1
T1 sequence (P05979 whole entry): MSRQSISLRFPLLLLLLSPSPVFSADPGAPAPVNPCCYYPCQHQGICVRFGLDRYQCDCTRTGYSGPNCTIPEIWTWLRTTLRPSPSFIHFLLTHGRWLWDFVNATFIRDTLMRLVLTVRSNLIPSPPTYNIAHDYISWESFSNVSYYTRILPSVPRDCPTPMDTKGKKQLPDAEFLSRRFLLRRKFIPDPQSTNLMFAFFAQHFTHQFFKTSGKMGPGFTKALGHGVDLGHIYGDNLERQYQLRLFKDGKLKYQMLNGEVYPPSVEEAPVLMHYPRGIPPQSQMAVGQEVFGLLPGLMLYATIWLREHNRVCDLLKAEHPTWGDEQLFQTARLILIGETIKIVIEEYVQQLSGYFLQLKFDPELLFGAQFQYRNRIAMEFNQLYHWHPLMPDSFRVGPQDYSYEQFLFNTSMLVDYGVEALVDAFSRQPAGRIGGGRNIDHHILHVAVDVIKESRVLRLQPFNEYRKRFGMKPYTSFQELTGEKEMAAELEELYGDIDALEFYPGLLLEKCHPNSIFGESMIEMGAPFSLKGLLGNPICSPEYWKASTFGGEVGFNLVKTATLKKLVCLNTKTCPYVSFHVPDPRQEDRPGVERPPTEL

[2] = Cytotoxicity against HDF cells assessed as cell viability at 100 uM by MTT assay; type: cell-based; details: human, read-out: Activity

SMILES | IC50 [1] | viability at 100 µM [2]
S=C(N/N=C\c1cn(-c2ccccc2)nc1-c1ccc(Cl)cc1)Nc1ccccc1 | 64.5 µM | 61.7%
COc1ccc(-c2nn(-c3ccccc3)cc2/C=N\NC(=S)Nc2ccccc2)cc1 | 42.3 µM | 52.6%
O=C1CSC(N/N=C\c2cn(-c3ccccc3)nc2-c2ccc(Cl)cc2)=N1 | 60.7 µM | 58.7%
O=C1CSC(N/N=C\c2cn(-c3ccccc3)nc2-c2ccc(Br)cc2)=N1 | 66.3 µM | 55.6%
O=C1CS/C(=N/N=C\c2cn(-c3ccccc3)nc2-c2ccc(Cl)cc2)N1c1ccccc1 | 62.3 µM | 60.7%
O=C1CS/C(=N/N=C\c2cn(-c3ccccc3)nc2-c2ccc(Br)cc2)N1c1ccccc1 | 60.5 µM | 57.4%
CC(=O)NC1=NN(C(C)=O)C(c2cn(-c3ccccc3)nc2-c2ccc(Cl)cc2)S1 (stereo unspecified) | 70.3 µM | 57.7%
CC(=O)NC1=NN(C(C)=O)C(c2cn(-c3ccccc3)nc2-c2ccc(Br)cc2)S1 (stereo unspecified) | 64.7 µM | 51.6%
COc1ccc(-c2nn(-c3ccccc3)cc2C2SC(NC(C)=O)=NN2C(C)=O)cc1 (stereo unspecified) | 80.3 µM | 56.7%
COc1ccc(-c2nn(-c3ccccc3)cc2C2SC(N(C(C)=O)c3ccccc3)=NN2C(C)=O)cc1 (stereo unspecified) | 64.7 µM | 61.4%

Continued by falling IC50 [1], values first:

IC50 [1] | SMILES | viability at 100 µM [2]
72.7 µM | CC(=O)N(C1=NN(C(C)=O)C(c2cn(-c3ccccc3)nc2-c2ccc(Br)cc2)S1)c1ccccc1 (stereo unspecified) | 51.4%
71.3 µM | COc1ccc(-c2nn(-c3ccccc3)cc2/C=N\NC2=NC(=O)CS2)cc1 | 59.7%
70.3 µM | CC(=O)N(C1=NN(C(C)=O)C(c2cn(-c3ccccc3)nc2-c2ccc(Cl)cc2)S1)c1ccccc1 (stereo unspecified) | 61.7%
65.7 µM | S=C(N/N=C\c1cn(-c2ccccc2)nc1-c1ccc(Br)cc1)Nc1ccccc1 | 58.7%
62.3 µM | COc1ccc(-c2nn(-c3ccccc3)cc2/C=N\NC(N)=S)cc1 | 63.4%
62.3 µM | COc1ccc(-c2nn(-c3ccccc3)cc2/C=N\N=C2\SCC(=O)N2c2ccccc2)cc1 | 63.4%
60.3 µM | NC(=S)N/N=C\c1cn(-c2ccccc2)nc1-c1ccc(Br)cc1 | 57.6%
56.3 µM | NC(=S)N/N=C\c1cn(-c2ccccc2)nc1-c1ccc(Cl)cc1 | 71.7%
